From patent US20090181942A1, “TRICYCLIC COMPOUNDS” (DAIICHI SANKYO COMPANY, LIMITED, priority 2005, published 2009) come the findings set out here.

Structures are written as SMILES.

The target in test [1] is T1, rat squalene synthetase (Rattus norvegicus, UniProt Q02769).
T1 construct: the final sediment thus obtained was used as a microsomal fraction for the measurement of enzymatic activity; from tissue; host or cells: liver of eight-week-old SD male rats, washed 105,000 x g microsomal fraction
T1 sequence (Q02769 1-416): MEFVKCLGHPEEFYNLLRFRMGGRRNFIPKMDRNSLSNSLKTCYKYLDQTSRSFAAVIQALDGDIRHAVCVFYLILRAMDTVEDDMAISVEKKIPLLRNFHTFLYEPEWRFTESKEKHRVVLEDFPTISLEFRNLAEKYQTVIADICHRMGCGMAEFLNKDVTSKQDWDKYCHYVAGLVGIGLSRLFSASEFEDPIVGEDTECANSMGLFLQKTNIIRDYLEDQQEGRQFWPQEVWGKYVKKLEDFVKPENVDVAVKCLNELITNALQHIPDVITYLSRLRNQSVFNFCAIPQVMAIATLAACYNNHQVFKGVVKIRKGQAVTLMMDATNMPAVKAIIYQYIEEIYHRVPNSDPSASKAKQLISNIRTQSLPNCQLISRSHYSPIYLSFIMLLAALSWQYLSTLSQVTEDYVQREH
Put plainly: Rat squalene synthetase inhibitory activity (rat liver microsomal fraction, [3H]farnesyl-pyrophosphate). The class given is biochemical. The note with it: rat liver microsomal fraction 30 μg/mL, 5 μM [3H]farnesyl-pyrophosphate, 37° C., 20 minutes; read-out: IC50 (squalene synthetase inhibitory activity: concentration inhibiting 50% of radioactivity incorporated into squalene). The procedure: 1. Rat Squalene Synthetase Inhibitory Activity
(1) Preparation of Enzyme Source
As an enzyme source, a microsomal fraction prepared from a rat liver was employed. First, eight-week-old SD male rats were subjected to laparotomy under anesthesia with pentobarbital sodium. […] To the liver thus obtained were added 0.3M sucrose, 1 mM dithiothreitol (DTT), 1 mM sodium ethylenediamine tetraacetate (EDTA) and various protease inhibitors. The resulting mixture was homogenized in the presence of a 10 mM phosphate buffer adjusted to pH 7.4 and centrifuged for 5 minutes at 2,000×g and for 15 minutes at 10,000×g. As the protease inhibitor, phenylmethanesulfonyl fluoride (PMSF), leupeptin and aprotinin were added to give the final concentrations of 1 mM, 10 μM, and 5 μg/mL, respectively. The supernatant after centrifugation was centrifuged further at 105,000×g for 60 minutes. The sediment thus obtained was suspended in a 10 mM phosphate buffer (pH 7.4) containing 1 mM DTT, 1 mM EDTA, and the above-described protease inhibitors and the resulting suspension was centrifuged at 105,000×g for 30 minutes, which operation was performed twice. After washing, the final sediment thus obtained was used as a microsomal fraction for the measurement of enzymatic activity.
(2) Measurement of Squalene Synthetase Inhibitory Activity
Squalene synthetase activity was measured in accordance with the method of Schechter, et al., described in Journal of Biological Chemistry, 267, 8628-8635 (1992). Described specifically, the compound of the present invention dissolved in water or dimethylsulfoxide (DMSO) was added to an enzyme reaction mixture (total amount: 50 μl) containing 5 mM reduced nicotinamide adenine dinucleotide phosphate (NADPH), 5 mM 3-[(3-cholamidopropyl)dimethylammonio]propanesulfonic acid (CHAPS), 10 mM potassium fluoride, 10 mM magnesium chloride, 10 mM DTT, 1 μM/mL NB-598 (squalene epoxydase inhibitor, Journal of Biological Chemistry, 265, 18075-180788 (1990)), 50 mM HEPES buffer (pH 7.4)), 30 μg/mL of the rat liver microsomal fraction, and 5 μM [^3H] farnesyl-pyrophosphate and the resulting mixture was reacted at 37° C. for 20 minutes (enzyme reaction was started by adding [^3H]farnesyl-pyrophosphate to the enzyme reaction mixture which had been incubated in advance at 37° C. for 10 minutes). To the enzyme reaction mixture was added 5 μl of 1M EDTA (pH 9.2) to terminate the enzyme reaction, followed by the addition of 5 μl of a 0.5% squalene ethanol solution. After spotting of a 40 μl portion of the resulting mixture on a plastic sheet for thin layer chromatography, development with 5% toluene-95% hexane and drying, these pots were visualized by exposure to iodine vapor and the band of squalene was identified. The spots were cut out with scissors and put in a vial container. To the container was added 10 mL of Aquasol-2 (product of New England Nuclear Research Products, USA) and radioactivity was measured by a liquid scintillation counter. The squalene synthetase inhibitory activity was expressed as a concentration (IC50) of the compound inhibiting 50% of radioactivity incorporated into squalene.

Test [2] relates to liver-cholesterol synthesis. Nature of the test: Rat single-dose liver-cholesterol synthesis inhibitory effect. Format: in vivo. The conditions noted are these: Wistar male rats, 3 mg/kg orally, 14C-mevalonic acid i.p. one hour later, liver taken one hour after that, relative to control group. The procedure:
2. Rat Single-Dose Liver-Cholesterol Synthesis Inhibitory Effect
A rat single-dose liver-cholesterol synthesis inhibitory effect was measured as described below.
To each the compounds of the present invention was added a necessary amount of a 0.5% methyl cellulose solution immediately before use. Then, an equivalent molar amount of sodium hydroxide or sodium hydrogen carbonate was added to dissolve or suspend it in the resulting solution. To 6-week-old Wistar male rats were orally administered each of the compounds of the present invention (3 mg/kg), while only a 0.5% methyl cellulose solution was administered to a control group. One hour later, physiological saline of mevalonic acid (5 μCi/5 mL/kg) labeled with a radioisotope ^14C was intraperitoneally administered. The rats were sacrificed one hour later. To 1 g of the liver thus obtained from the rats was added 5 mL of a 15% KOH ethanol solution and the resulting mixture was left to stand for 15 hours. After heating at 75° C. for 2 hours, the reaction mixture was extracted with 5 mL of water and 10 mL of petroleum ether. The petroleum ether layer was collected, evaporated to dryness and then dissolved in 50 μl of a chloroform:acetone=2:1 solution. The cholesterol band was separated by silica gel thin layer chromatography (Art.5748, toluene:ethyl acetate=3:1) and cut out. It was put in a vial container, followed by the addition of 10 mL of Aquasol-2 (product of Packard BioScience Company). The radioactivity was measured using a liquid scintillation counter. A ratio of the radioactivity relative to that of a control group was determined and liver-cholesterol synthesis inhibitory activity (%) was calculated.

Turning to `COc1cccc([C@H]2O[C@H](Cc3ncc(CCC(=O)O)s3)c3nnc(C(F)(F)F)n3-c3ccc(Cl)cc32)c1OC` (relative stereo) [Example 322, 3-({2-[(trans)-8-Chloro-6-(2,3-dimethoxyphenyl)-1-(trifluoromethyl)-4H,6H-[1,2,4]triazolo[4,3-a][4,1]benzoxazepin-4-yl]methyl}-1,3-thiazol-5-yl)propanoic Acid], the IC50 in test [1] was 4.6 nM. Besides, in test [2], the “Liver-cholesterol synthesis inhibitory effect” value worked out at 76%.
`COC(=O)CCc1cnc(C[C@H]2S[C@H](c3cccc(OC)c3OC)c3cc(Cl)ccc3-n3c2nnc3C(F)(F)F)s1` (relative stereo) [Example 330, Methyl 3-({2-[(trans)-8-chloro-6-(2,3-dimethoxyphenyl)-1-(trifluoromethyl)-4H,6H-[1,2,4]triazolo[4,3-a][4,1]benzothiazepin-4-yl]methyl}-1,3-thiazol-5-yl)propanoate]: in test [1], the IC50 is 4.9 nM. For the same compound, in test [2], the “Liver-cholesterol synthesis inhibitory effect” value is 75%.
The matching figures for `COc1cccc(C2SC(CC(=O)N3CCC(CC(=O)O)CC3)c3nnc(C(F)(F)F)n3-c3ccc(Cl)cc32)c1OC` (single isomer, unassigned) [Example 343, 2-(1-{2-[8-Chloro-6-(2,3-dimethoxyphenyl)-1-(trifluoromethyl)-4H,6H-[1,2,4]triazolo[4,3-a][4,1]benzothiazepin-4-yl]acetyl}-4-piperidinyl)acetic Acid]: 7.6 nM and 80%.
Consider `COc1cccc([C@H]2O[C@H](CCn3nnc(CC(=O)O)n3)c3cccn3-c3c(F)cc(Cl)cc32)c1OC` [Example 21, 2-(2-{2-[(4R,6S)-8-Chloro-6-(2,3-dimethoxyphenyl)-10-fluoro-4H,6H-pyrrolo[1,2-a][4,1]benzoxazepin-4-yl]ethyl}-2H-1,2,3,4-tetrazol-5-yl)acetic Acid], for which, in test [2], the “Liver-cholesterol synthesis inhibitory effect” value is recorded as 68%.
Take `O=C(O)CC1CCN(C(=O)CC2OC(c3cccc4ccccc34)c3cc(Cl)ccc3-n3cccc32)CC1` (stereo not drawn) [Example 210, 2-(1-{2-[8-Chloro-6-(1-naphthyl)-4H,6H-pyrrolo[1,2-a][4,1]benzoxazepin-4-yl]acetyl}-4-piperidinyl)acetic Acid]: the IC50 in test [1] is 0.56 nM.
On to `COc1cccc([C@H]2O[C@H](CCn3cc(C(=O)O)cn3)c3nccn3-c3ccc(Cl)cc32)c1OC` [Example 263, 1-{2-[(4R,6S)-8-Chloro-6-(2,3-dimethoxyphenyl)-4H,6H-imidazo[1,2-a][4,1]benzoxazepin-4-yl]ethyl}-1H-pyrazole-4-carboxylic Acid], for which, in test [1], the IC50 came out at 3.9 nM. Besides, in test [2], the “Liver-cholesterol synthesis inhibitory effect” value came to 84%.
The matching figures for `COc1cccc(C2SC(CC(=O)O)c3nnc(C(F)(F)F)n3-c3ccc(Cl)cc32)c1OC` (stereo not drawn) [Example 341, 2-[8-Chloro-6-(2,3-dimethoxyphenyl)-1-(trifluoromethyl)-4H,6H-[1,2,4]triazolo[4,3-a][4,1]benzothiazepin-4-yl]acetic Acid]: 4.6 nM and 90%.
